Laboratory results from article PMC4468608, “A distinct p53 target gene set predicts for response to the selective p53–HDM2 inhibitor NVP-CGM097” (eLife, 2015).
Like-named read-outs stand apart in the source and are kept apart here.

Test system: cell lines from the Cancer Cell Line Encyclopedia (CCLE)
Test: High-throughput cell viability assay, CCLE cell line panel (n = 356)
Assay type: cell-based, human
Details: for IC50: Homo sapiens
Protocol: Cell lines were partitioned into sensitive and insensitive groups based on compound potency (IC50). […] All other cell lines were obtained from ATCC (American Type Culture Collection), DSMZ (Deutsche Sammlung von Mikroorganismen und Zellkulturen), and HSRRB (Health Science Research Resources Bank) and cultured in RPMI or Dulbecco's modified Eagle's medium plus 10% FBS (Invitrogen, Carlsbad, CA) at 37°C, 5% CO2.

COc1cc2c(cc1OC(C)C)[C@H](c1ccc(Cl)cc1)N(c1ccc(N(C)C[C@H]3CC[C@H](N4CCNC(=O)C4)CC3)cc1)C(=O)C2 [NVP-CFC218]
IC50 (read-out: NVP- CFC218 IC50 (µM), cell line MEL-HO, skin, TP53 WT): > 8 µM
IC50 (read-out: NVP- CFC218 IC50 (µM), cell line NCI-H1341, lung, TP53 WT): > 8 µM
IC50 (read-out: NVP- CFC218 IC50 (µM), cell line PE/CA-PJ41 (clone D2), upper_aerodigestive_tract, TP53 MUT): > 8 µM
IC50 (read-out: NVP- CFC218 IC50 (µM), cell line PEER, haem._and_lymphoid_tissue, TP53 MUT): > 8 µM
IC50 (read-out: NVP- CFC218 IC50 (µM), cell line SNG-M, endometrium, TP53 WT): > 8 µM
IC50 (read-out: NVP- CFC218 IC50 (µM), cell line Sq-1, lung, TP53 WT): > 8 µM
IC50 (read-out: NVP- CFC218 IC50 (µM), cell line TE-9, oesophagus, TP53 MUT): > 8 µM
IC50 (read-out: NVP- CFC218 IC50 (µM), cell line WM-88, skin, TP53 WT): > 8 µM
Amax (Hs 729, TP53 MUT): 7.88%
sensitivity call (Hs 729, TP53 MUT): insensitive (Sensitivity call for each compound was applied according to a cut-off of 4 µM for IC50 and -50% for Amax)
Amax (IGROV1, TP53 MUT): -1.82%
sensitivity call (IGROV1, TP53 MUT): insensitive (Sensitivity call for each compound was applied according to a cut-off of 4 µM for IC50 and -50% for Amax)
Amax (J82, TP53 MUT): -2.55%
sensitivity call (J82, TP53 MUT): insensitive (Sensitivity call for each compound was applied according to a cut-off of 4 µM for IC50 and -50% for Amax)
Amax (JHH-7, TP53 MUT): -2.28%
sensitivity call (JHH-7, TP53 MUT): insensitive (Sensitivity call for each compound was applied according to a cut-off of 4 µM for IC50 and -50% for Amax)
Amax (JHUEM-2, TP53 WT): -91.79%
sensitivity call (JHUEM-2, TP53 WT): sensitive (Sensitivity call for each compound was applied according to a cut-off of 4 µM for IC50 and -50% for Amax)
Amax (JMSU-1, TP53 MUT): 2.12%
sensitivity call (JMSU-1, TP53 MUT): insensitive (Sensitivity call for each compound was applied according to a cut-off of 4 µM for IC50 and -50% for Amax)
Amax (KE-39, TP53 MUT): -5.22%
sensitivity call (KE-39, TP53 MUT): insensitive (Sensitivity call for each compound was applied according to a cut-off of 4 µM for IC50 and -50% for Amax)
Amax (KE-97, TP53 WT): -79.42%
sensitivity call (KE-97, TP53 WT): sensitive (Sensitivity call for each compound was applied according to a cut-off of 4 µM for IC50 and -50% for Amax)
Amax (KMM-1, TP53 MUT): -27.14%
sensitivity call (KMM-1, TP53 MUT): insensitive (Sensitivity call for each compound was applied according to a cut-off of 4 µM for IC50 and -50% for Amax)
Amax (KNS-60, TP53 MUT): -1.47%
sensitivity call (KNS-60, TP53 MUT): insensitive (Sensitivity call for each compound was applied according to a cut-off of 4 µM for IC50 and -50% for Amax)
Amax (KP-N-SI9s, TP53 WT): -92.10%
sensitivity call (KP-N-SI9s, TP53 WT): sensitive (Sensitivity call for each compound was applied according to a cut-off of 4 µM for IC50 and -50% for Amax)
Amax (KU812, TP53 MUT): 19.95%
sensitivity call (KU812, TP53 MUT): insensitive (Sensitivity call for each compound was applied according to a cut-off of 4 µM for IC50 and -50% for Amax)
Amax (KYSE-30, TP53 MUT): -3.88%
sensitivity call (KYSE-30, TP53 MUT): insensitive (Sensitivity call for each compound was applied according to a cut-off of 4 µM for IC50 and -50% for Amax)
Amax (KYSE-70, TP53 MUT): -0.20%
sensitivity call (KYSE-70, TP53 MUT): insensitive (Sensitivity call for each compound was applied according to a cut-off of 4 µM for IC50 and -50% for Amax)
Amax (KYSE-140, TP53 MUT): -19.56%
sensitivity call (KYSE-140, TP53 MUT): insensitive (Sensitivity call for each compound was applied according to a cut-off of 4 µM for IC50 and -50% for Amax)
Amax (KYSE-180, TP53 MUT): -30.58%
sensitivity call (KYSE-180, TP53 MUT): insensitive (Sensitivity call for each compound was applied according to a cut-off of 4 µM for IC50 and -50% for Amax)
Amax (LCLC-103H, TP53 MUT): -1.79%
sensitivity call (LCLC-103H, TP53 MUT): insensitive (Sensitivity call for each compound was applied according to a cut-off of 4 µM for IC50 and -50% for Amax)
Amax (LK-2, TP53 MUT): -3.65%
sensitivity call (LK-2, TP53 MUT): insensitive (Sensitivity call for each compound was applied according to a cut-off of 4 µM for IC50 and -50% for Amax)
Amax (LN-18, TP53 MUT): -16.71%
sensitivity call (LN-18, TP53 MUT): insensitive (Sensitivity call for each compound was applied according to a cut-off of 4 µM for IC50 and -50% for Amax)
Amax (LOU-NH91, TP53 MUT): 2.89%
sensitivity call (LOU-NH91, TP53 MUT): insensitive (Sensitivity call for each compound was applied according to a cut-off of 4 µM for IC50 and -50% for Amax)
Amax (LOX IMVI, TP53 WT): -48.25%
sensitivity call (LOX IMVI, TP53 WT): insensitive (Sensitivity call for each compound was applied according to a cut-off of 4 µM for IC50 and -50% for Amax)
Amax (LU65, TP53 MUT): -1.36%
sensitivity call (LU65, TP53 MUT): insensitive (Sensitivity call for each compound was applied according to a cut-off of 4 µM for IC50 and -50% for Amax)
Amax (MEG-01, TP53 MUT): 0.30%
sensitivity call (MEG-01, TP53 MUT): insensitive (Sensitivity call for each compound was applied according to a cut-off of 4 µM for IC50 and -50% for Amax)
Amax (MKN74, TP53 MUT): 2.29%
sensitivity call (MKN74, TP53 MUT): insensitive (Sensitivity call for each compound was applied according to a cut-off of 4 µM for IC50 and -50% for Amax)
Amax (MOG-G-UVW, TP53 WT): 3.49%
sensitivity call (MOG-G-UVW, TP53 WT): insensitive (Sensitivity call for each compound was applied according to a cut-off of 4 µM for IC50 and -50% for Amax)
Amax (MOLM-16, TP53 MUT): 12.84%
sensitivity call (MOLM-16, TP53 MUT): insensitive (Sensitivity call for each compound was applied according to a cut-off of 4 µM for IC50 and -50% for Amax)
Amax (MeWo, TP53 MUT): 0.14%
sensitivity call (MeWo, TP53 MUT): insensitive (Sensitivity call for each compound was applied according to a cut-off of 4 µM for IC50 and -50% for Amax)
Amax (NCI-H23, TP53 MUT): -1.09%
sensitivity call (NCI-H23, TP53 MUT): insensitive (Sensitivity call for each compound was applied according to a cut-off of 4 µM for IC50 and -50% for Amax)
Amax (NCI-H1355, TP53 MUT): -28.98%
sensitivity call (NCI-H1355, TP53 MUT): insensitive (Sensitivity call for each compound was applied according to a cut-off of 4 µM for IC50 and -50% for Amax)
Amax (NCI-H1648, TP53 MUT): -2.43%
sensitivity call (NCI-H1648, TP53 MUT): insensitive (Sensitivity call for each compound was applied according to a cut-off of 4 µM for IC50 and -50% for Amax)
Amax (NCI-H1651, TP53 MUT): -2.57%
sensitivity call (NCI-H1651, TP53 MUT): insensitive (Sensitivity call for each compound was applied according to a cut-off of 4 µM for IC50 and -50% for Amax)
Amax (NCI-H2009, TP53 MUT): -6.28%
sensitivity call (NCI-H2009, TP53 MUT): insensitive (Sensitivity call for each compound was applied according to a cut-off of 4 µM for IC50 and -50% for Amax)
Amax (NCI-H2110, TP53 MUT): -4.78%
sensitivity call (NCI-H2110, TP53 MUT): insensitive (Sensitivity call for each compound was applied according to a cut-off of 4 µM for IC50 and -50% for Amax)
Amax (NCI-H2122, TP53 MUT): -89.07%
sensitivity call (NCI-H2122, TP53 MUT): sensitive (Sensitivity call for each compound was applied according to a cut-off of 4 µM for IC50 and -50% for Amax)
Amax (NCI-H2444, TP53 MUT): -4.64%
sensitivity call (NCI-H2444, TP53 MUT): insensitive (Sensitivity call for each compound was applied according to a cut-off of 4 µM for IC50 and -50% for Amax)
Amax (NCI-H2452, TP53 WT): -0.68%
sensitivity call (NCI-H2452, TP53 WT): insensitive (Sensitivity call for each compound was applied according to a cut-off of 4 µM for IC50 and -50% for Amax)
Amax (NCO2, TP53 MUT): -1.52%
sensitivity call (NCO2, TP53 MUT): insensitive (Sensitivity call for each compound was applied according to a cut-off of 4 µM for IC50 and -50% for Amax)
Amax (OCI-M1, TP53 MUT): -1.98%
sensitivity call (OCI-M1, TP53 MUT): insensitive (Sensitivity call for each compound was applied according to a cut-off of 4 µM for IC50 and -50% for Amax)
Amax (OE33, TP53 MUT): -2.82%
sensitivity call (OE33, TP53 MUT): insensitive (Sensitivity call for each compound was applied according to a cut-off of 4 µM for IC50 and -50% for Amax)
